In patent US12410208B2, “(2-acetamidyl)thio-beta-D-galactopyranoside derivatives” (Idorsia Pharmaceuticals Ltd, priority 2020, dated 2025):
pIC50: −log10 of the molar value. Read-outs that look alike come from different tables or passages of the source.

Columns and labels:
[1] = target: biotinylated human Gal-3 (hGal-3) (Homo sapiens, UniProt P17931); experiment: Competitive binding assay: biotinylated hGal-3 binding to microplate-adsorbed asialofetuin (ASF), spectrophotometric; details: hGal-3, read-out: IC50 (Gal-3 inhibition)
Outline: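 Serially diluted compounds competed with asialofetuin on the plate for biotinylated human Gal-3 during a 3 h incubation at 4° C. Streptavidin-peroxidase with ABTS gave the spectrophotometric signal. IC50 values were averaged over repeat runs.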

[2] = target: human Gal-1 (hGal-1) (Homo sapiens, UniProt P09382); experiment: Competitive binding assay: biotinylated hGal-1 binding to microplate-adsorbed asialofetuin (ASF), spectrophotometric; details: hGal-1 binding to asialofetuin; Table 15; R and S epimers of selected Examples also listed; read-out: IC50 (Galectin-1 inhibition)
Outline: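 Spectrophotometric competition readout with ABTS after streptavidin-peroxidase (80 ng/mL, 1 h, 4 °C) detection of bound biotinylated hGal-1.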

Chain of biotinylated human Gal-3 (hGal-3) (P17931 whole entry): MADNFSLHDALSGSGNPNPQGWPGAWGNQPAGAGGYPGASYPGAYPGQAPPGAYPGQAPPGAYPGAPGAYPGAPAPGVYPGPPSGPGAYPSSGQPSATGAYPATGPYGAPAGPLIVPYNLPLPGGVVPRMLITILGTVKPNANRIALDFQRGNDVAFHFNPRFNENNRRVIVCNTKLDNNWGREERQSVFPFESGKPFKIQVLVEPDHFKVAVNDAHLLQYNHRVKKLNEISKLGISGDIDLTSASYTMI
Chain of human Gal-1 (hGal-1) (P09382 whole entry): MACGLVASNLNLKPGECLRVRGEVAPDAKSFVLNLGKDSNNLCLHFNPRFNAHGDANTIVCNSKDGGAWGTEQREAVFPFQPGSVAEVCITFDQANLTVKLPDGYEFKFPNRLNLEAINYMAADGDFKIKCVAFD

Compound | pIC50 ([1]; Table 13) | pIC50 [2] | pIC50 ([1]; Table 11)
CO[C@@H]1[C@@H](n2cc(-c3cc(F)c(F)c(F)c3)nn2)[C@@H](O)[C@@H](CO)O[C@H]1S[C@H](C(=O)N1CCC(F)(F)CC1)C1(O)CCC2(CCC2)CC1 [Example 2.69.226S.I., (S)-1-(4,4-Difluoropiperidin-1-yl)-2-(((2S,3R,4S,5R,6R)-5-hydroxy-6-(hydroxymethyl)-3-methoxy-4-(4-(3,4,5-trifluorophenyl)-1H-1,2,3-triazol-1-yl)tetrahydro-2H-pyran-2-yl)thio)-2-(7-hydroxyspiro[3.5]nonan-7-yl)ethan-1-one] | 6.92 | 6.57 | 
CO[C@@H]1[C@@H](n2cc(-c3cc(F)c(F)c(F)c3)nn2)[C@@H](O)[C@@H](CO)O[C@H]1SC(C(=O)N1CCC(F)(F)CC1)C1(O)CCC2(CC1)COC2 (stereo partly drawn) [Example 2.70.226.I., 1-(4,4-Difluoropiperidin-1-yl)-2-(((2S,3R,4S,5R,6R)-5-hydroxy-6-(hydroxymethyl)-3-methoxy-4-(4-(3,4,5-trifluorophenyl)-1H-1,2,3-triazol-1-yl)tetrahydro-2H-pyran-2-yl)thio)-2-(7-hydroxy-2-oxaspiro[3.5]nonan-7-yl)ethan-1-one] | 6.96 | 6.70 | 
CO[C@@H]1[C@@H](n2cc(-c3cc(F)c(F)c(F)c3)nn2)[C@@H](O)[C@@H](CO)O[C@H]1S[C@@H](C(=O)N1CCC(F)(F)CC1)C1(O)CCC2(CCCC2)CC1 [Example 2.71.226R.I., (R)-1-(4,4-Difluoropiperidin-1-yl)-2-(((2S,3R,4S,5R,6R)-5-hydroxy-6-(hydroxymethyl)-3-methoxy-4-(4-(3,4,5-trifluorophenyl)-1H-1,2,3-triazol-1-yl)tetrahydro-2H-pyran-2-yl)thio)-2-(8-hydroxyspiro[4.5]decan-8-yl)ethan-1-one] | 6.17 | 5.96 | 
CO[C@@H]1[C@@H](n2cc(-c3cc(F)c(F)c(F)c3)nn2)[C@@H](O)[C@@H](CO)O[C@H]1S[C@H](C(=O)N1CCC(F)(F)CC1)C1(O)CCC2(CCCC2)CC1 [Example 2.71.226S.I., (S)-1-(4,4-Difluoropiperidin-1-yl)-2-(((2S,3R,4S,5R,6R)-5-hydroxy-6-(hydroxymethyl)-3-methoxy-4-(4-(3,4,5-trifluorophenyl)-1H-1,2,3-triazol-1-yl)tetrahydro-2H-pyran-2-yl)thio)-2-(8-hydroxyspiro[4.5]decan-8-yl)ethan-1-one] | 7.00 | 6.57 | 
CO[C@@H]1[C@@H](n2cc(-c3cc(F)c(F)c(F)c3)nn2)[C@@H](O)[C@@H](CO)O[C@H]1SC(C(=O)N1CCC(F)(F)CC1)C1(O)CCC2(CCOCC2)CC1 (stereo partly drawn) [Example 2.72.226.I., 1-(4,4-Difluoropiperidin-1-yl)-2-(((2S,3R,4S,5R,6R)-5-hydroxy-6-(hydroxymethyl)-3-methoxy-4-(4-(3,4,5-trifluorophenyl)-1H-1,2,3-triazol-1-yl)tetrahydro-2H-pyran-2-yl)thio)-2-(9-hydroxy-3-oxaspiro[5.5]undecan-9-yl)ethan-1-one] | 7.22 | 6.92 | 
CO[C@@H]1[C@@H](n2cc(-c3cc(F)c(F)c(F)c3)nn2)[C@@H](O)[C@@H](CO)O[C@H]1S[C@@H](C(=O)N1CCC(F)(F)CC1)C1(O)CCC2(CCOCC2)CC1 [Example 2.72.226R.I., (R)-1-(4,4-Difluoropiperidin-1-yl)-2-(((2S,3R,4S,5R,6R)-5-hydroxy-6-(hydroxymethyl)-3-methoxy-4-(4-(3,4,5-trifluorophenyl)-1H-1,2,3-triazol-1-yl)tetrahydro-2H-pyran-2-yl)thio)-2-(9-hydroxy-3-oxaspiro[5.5]undecan-9-yl)ethan-1-one] | 4.83 | 4.40 | 
CO[C@@H]1[C@@H](n2cc(-c3cc(F)c(F)c(F)c3)nn2)[C@@H](O)[C@@H](CO)O[C@H]1S[C@H](C(=O)N1CCC(F)(F)CC1)C1(O)CCC2(CCOCC2)CC1 [Example 2.72.226S.I., (S)-1-(4,4-Difluoropiperidin-1-yl)-2-(((2S,3R,4S,5R,6R)-5-hydroxy-6-(hydroxymethyl)-3-methoxy-4-(4-(3,4,5-trifluorophenyl)-1H-1,2,3-triazol-1-yl)tetrahydro-2H-pyran-2-yl)thio)-2-(9-hydroxy-3-oxaspiro[5.5]undecan-9-yl)ethan-1-one] | 7.40 | 7.00 | 
CCN(C)C(=O)C(S[C@@H]1O[C@H](CO)[C@H](O)[C@H](n2cc(-c3cc(F)c(C)c(F)c3)nn2)[C@H]1O)C1(O)CCOCC1 (stereo partly drawn) [Example 3.41.203., 2-(((2S,3R,4S,5R,6R)-4-(4-(3,5-Difluoro-4-methylphenyl)-1H-1,2,3-triazol-1-yl)-3,5-dihydroxy-6-(hydroxymethyl)tetrahydro-2H-pyran-2-yl)thio)-N-ethyl-2-(4-hydroxytetrahydro-2H-pyran-4-yl)-N-methylacetamide] |  | 6.17 | 7.40
CCN(C)C(=O)C(S[C@@H]1O[C@H](CO)[C@H](O)[C@H](n2cc(-c3cc(F)cc(F)c3)nn2)[C@H]1O)C1(O)CCOCC1 (stereo partly drawn) [Example 10.41.203., 2-(((2S,3R,4S,5R,6R)-4-(4-(3,5-Difluorophenyl)-1H-1,2,3-triazol-1-yl)-3,5-dihydroxy-6-(hydroxymethyl)tetrahydro-2H-pyran-2-yl)thio)-N-ethyl-2-(4-hydroxytetrahydro-2H-pyran-4-yl)-N-methylacetamide] |  | 6.57 | 7.00
CCN(C)C(=O)C(S[C@@H]1O[C@H](CO)[C@H](O)[C@H](n2cc(-c3cc(F)c(Cl)c(F)c3)nn2)[C@H]1O)C1(O)CCOCC1 (stereo partly drawn) [Example 11.41.203., 2-(((2S,3R,4S,5R,6R)-4-(4-(4-Chloro-3,5-difluorophenyl)-1H-1,2,3-triazol-1-yl)-3,5-dihydroxy-6-(hydroxymethyl)tetrahydro-2H-pyran-2-yl)thio)-N-ethyl-2-(4-hydroxytetrahydro-2H-pyran-4-yl)-N-methylacetamide] |  | 6.49 | 7.52
CCN(C)C(=O)C(S[C@@H]1O[C@H](CO)[C@H](O)[C@H](n2cc(-c3ccc(Br)c(F)c3)nn2)[C@H]1O)C1(O)CCOCC1 (stereo partly drawn) [Example 12.41.203., 2-(((2S,3R,4S,5R,6R)-4-(4-(4-Bromo-3-fluorophenyl)-1H-1,2,3-triazol-1-yl)-3,5-dihydroxy-6-(hydroxymethyl)tetrahydro-2H-pyran-2-yl)thio)-N-ethyl-2-(4-hydroxytetrahydro-2H-pyran-4-yl)-N-methylacetamide] |  | 6.44 | 7.40
CCN(C)C(=O)C(S[C@@H]1O[C@H](CO)[C@H](O)[C@H](n2cc(-c3cc(F)cc(Cl)c3)nn2)[C@H]1O)C1(O)CCOCC1 (stereo partly drawn) [Example 13.41.203., 2-(((2S,3R,4S,5R,6R)-4-(4-(3-Chloro-5-fluorophenyl)-1H-1,2,3-triazol-1-yl)-3,5-dihydroxy-6-(hydroxymethyl)tetrahydro-2H-pyran-2-yl)thio)-N-ethyl-2-(4-hydroxytetrahydro-2H-pyran-4-yl)-N-methylacetamide] |  | 6.89 | 7.10
CCN(C)C(=O)C(S[C@@H]1O[C@H](CO)[C@H](O)[C@H](n2cc(-c3nc(Br)cs3)nn2)[C@H]1O)C1(O)CCOCC1 (stereo partly drawn) [Example 14.41.203., 2-(((2S,3R,4S,5R,6R)-4-(4-(4-Bromothiazol-2-yl)-1H-1,2,3-triazol-1-yl)-3,5-dihydroxy-6-(hydroxymethyl)tetrahydro-2H-pyran-2-yl)thio)-N-ethyl-2-(4-hydroxytetrahydro-2H-pyran-4-yl)-N-methylacetamide] |  | 7.52 | 6.82
CCN(C)C(=O)C(S[C@@H]1O[C@H](CO)[C@H](O)[C@H](n2cc(-c3cc(F)c(F)c(Cl)c3)nn2)[C@H]1O)C1(O)CCOCC1 (stereo partly drawn) [Example 15.41.203., 2-(((2S,3R,4S,5R,6R)-4-(4-(3-Chloro-4,5-difluorophenyl)-1H-1,2,3-triazol-1-yl)-3,5-dihydroxy-6-(hydroxymethyl)tetrahydro-2H-pyran-2-yl)thio)-N-ethyl-2-(4-hydroxytetrahydro-2H-pyran-4-yl)-N-methylacetamide] |  | 7.10 | 7.22
CCN(C)C(=O)C(S[C@@H]1O[C@H](CO)[C@H](O)[C@H](n2cc(-c3ccc(F)c(F)c3)nn2)[C@H]1O)C1(O)CCOCC1 (stereo partly drawn) [Example 16.41.203., 2-(((2S,3R,4S,5R,6R)-4-(4-(3,4-Difluorophenyl)-1H-1,2,3-triazol-1-yl)-3,5-dihydroxy-6-(hydroxymethyl)tetrahydro-2H-pyran-2-yl)thio)-N-ethyl-2-(4-hydroxytetrahydro-2H-pyran-4-yl)-N-methylacetamide] |  | 6.89 | 7.22
CCN(C)C(=O)C(S[C@@H]1O[C@H](CO)[C@H](O)[C@H](n2cc(-c3cc(F)c(Cl)c(Cl)c3)nn2)[C@H]1O)C1(O)CCOCC1 (stereo partly drawn) [Example 17.41.203., 2-(((2S,3R,4S,5R,6R)-4-(4-(3,4-Dichloro-5-fluorophenyl)-1H-1,2,3-triazol-1-yl)-3,5-dihydroxy-6-(hydroxymethyl)tetrahydro-2H-pyran-2-yl)thio)-N-ethyl-2-(4-hydroxytetrahydro-2H-pyran-4-yl)-N-methylacetamide] |  | 6.85 | 7.40
CCN(C)C(=O)C(S[C@@H]1O[C@H](CO)[C@H](O)[C@H](n2cc(-c3cc(F)c(Br)c(F)c3)nn2)[C@H]1O)C1(O)CCOCC1 (stereo partly drawn) [Example 18.41.203., 2-(((2S,3R,4S,5R,6R)-4-(4-(4-Bromo-3,5-difluorophenyl)-1H-1,2,3-triazol-1-yl)-3,5-dihydroxy-6-(hydroxymethyl)tetrahydro-2H-pyran-2-yl)thio)-N-ethyl-2-(4-hydroxytetrahydro-2H-pyran-4-yl)-N-methylacetamide] |  | 6.46 | 7.40
